Bridge positions count the residues as written; N and C are the ends. Square brackets hold non-standard residues; d marks the D form. Peptide text beside a SMILES is read from it. * marks the point of attachment. Octanoyl = CCCCCCCC(=O)*; Dab = NCC[C@H](N)C(=O)O; Abu = CC[C@H](N)C(=O)O
How the values were obtained:
E. coli IH3080 (K1:O18) [1] = assay: Well diffusion growth inhibition on LB agar plates (direct antibacterial activity); type: cell-based, Escherichia coli
How it was run: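 Growth inhibition of encapsulated E. coli IH3080 (K1:O18) was measured by well diffusion on LB agar plates. A suspension of about 10^8 cells/ml in 0.9% NaCl, made from an overnight LB agar culture, was spread over the plates and the excess removed. Once dry, five 2 mm wells were drilled per plate and test solutions added, with 0.9% NaCl as control. After 18 h at 37° C, inhibition zone diameters were measured and converted to surface areas in square mm.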

E. coli IH3080 (K1:O18) [2] = assay: Experimental E. coli peritonitis model in mice; type: in vivo; conditions: 4.5 h postinfection ([…] after the treatment), 5 mg/kg subcutaneous
Method: A suspension of E. coli IH3080 (K1:O18) in saline (0.9% NaCl) was prepared from an overnight culture on a blood agar plate (Statens Serum Institut, Copenhagen, Denmark). All mice (female NMR1 from Harlan Scandinavia, Allerød, Denmark; weight, 25-30 g) were inoculated intraperitoneally with 0.5 ml of the suspension containing 0.96×10^6 CFU per ml in the lateral lower quadrant of the abdomen. At 1 h, the CFU count was determined from three mice and the remaining mice (four mice per group) were treated with a subcutaneous injection of 0.2 ml of erythromycin solution in saline (corresponding to 5 mg/kg body weight) or NAB7061 solution in saline (corresponding to 5 mg/kg body weight), or both erythromycin and NAB7061 (corresponding to 5 mg/kg body weight of both drugs; given at two separate sites). Control group received two 0.2 ml injections of saline. At 4.5 h postinfection, all mice were anaesthetized with CO2 and sacrificed. Sterile saline (2 ml) was injected intraperitoneally and the abdomen was gently massaged before it was opened and the fluid sampled. Appropriate dilutions of the fluid were plated on blood agar plates, the plates were incubated overnight, and the colonies were counted.

S. maltophilia ATCC17444 = assay: E-test MIC of antibiotics on Mueller-Hinton agar with or without NAB7061 (4 μg/ml); sensitization factor = MIC ratio absence/presence; type: cell-based
Method: (§1) MICs were determined by using E-strips (Biodisk Ltd., Solna, Sweden) according to the manufacturer's instructions.
(§2) The strains originated from ATCC (11 strains), CCUG (11 strains), and NCTC (The National Collection of Type Cultures, Colindale, U.K.; 2 strains). Eight strains (the F-strains) were purchased from Mobidiag Ltd., Helsinki, Finland. The source of E. coli IH3080 has been given in Example 2. Sensitization factor was defined as in Example 7.

E. coli CCUG41421 = assay: as above; type: cell-based, Escherichia coli
Method: as §1, §2

E. coli CCUG41422 = assay: as above; type: cell-based, Escherichia coli
Method: as §1, §2

E. coli CCUG41424 = assay: as above; type: cell-based, Escherichia coli
Method: as §1, §2

E. coli CCUG41432 = assay: as above; type: cell-based, Escherichia coli
Method: as §1, §2

E. coli NCTC13351 = assay: as above; type: cell-based, Escherichia coli
Method: as §1, §2

E. coli CCUG41427 = assay: as above; type: cell-based, Escherichia coli
Method: as §1, §2

E. coli CCUG41425 = assay: as above; type: cell-based, Escherichia coli
Method: as §1, §2

S. marcescens ATCC8100 = assay: as above; type: cell-based, Serratia marcescens
Method: as §1, §2

A. baumannii ATCC 19606 = assay: Sensitization to rifampin: well diffusion growth inhibition on LB plates containing rifampin; type: cell-based, Acinetobacter baumannii; conditions: 4 μg of compound
E. coli IH3080 = assay: as above; type: cell-based, Escherichia coli; conditions: 4 μg of compound
[3] = test system: E. coli (ATCC25922 and IH3080), K. pneumoniae ATCC13883, and E. cloacae ATCC23355; assay: E-test sensitization by NAB7061 (4 μg/ml), summary over the tested strains of Table 7; type: cell-based; conditions: range over the tested strains
Method: as §1

## CCCCCCCC(=O)N[C@H](C(=O)N[C@@H](CC)C(=O)N[C@H]1CCNC(=O)[C@H]([C@@H](C)O)NC(=O)[C@H](CCN)NC(=O)[C@H](CCN)NC(=O)[C@H](CC(C)C)NC(=O)[C@@H](Cc2ccccc2)NC(=O)[C@H](CCN)NC1=O)[C@@H](C)O [NAB 7061, OA-Thr-Abu-cy[Dab-Dab-DPhe-Leu-Dab-Dab-Thr-]] (Octanoyl-T[Abu][Dab][Dab][dF]L[Dab][Dab]T; lactam 3-C)
E. coli IH3080 (K1:O18) [1]; 4 μg of compound per well
  Antibacterial activity (growth inhibition area around a well): 0 square millimeters
E. coli IH3080 (K1:O18) [1]; 10 μg of compound per well
  Antibacterial activity (growth inhibition area around a well): 50 square millimeters
E. coli IH3080 (K1:O18) [2]
  CFU counts in peritoneal fluid: 1.1 (±0.6)×10^6 per ml
S. maltophilia ATCC17444
  MIC of rifampin in the presence of 4 μg/ml of NAB 7061: 2 µg/mL
E. coli CCUG41421
  MIC of clarithromycin in the presence of 4 μg/ml of NAB 7061: 0.125 µg/mL
E. coli CCUG41422
  MIC of clarithromycin in the presence of 4 μg/ml of NAB 7061: 0.25 µg/mL
E. coli CCUG41422; NAB 7061 4 μg/ml
  Sensitization factor to rifampin: 170-256
E. coli CCUG41424
  MIC of clarithromycin in the presence of 4 μg/ml of NAB 7061: 0.125 µg/mL
E. coli CCUG41424; NAB 7061 4 μg/ml
  Sensitization factor to rifampin: 85-94
E. coli CCUG41432
  MIC of clarithromycin in the presence of 4 μg/ml of NAB 7061: 0.064 µg/mL
  MIC of rifampin in the presence of 4 μg/ml of NAB 7061: 0.032 µg/mL
E. coli CCUG41432; NAB 7061 4 μg/ml
  Sensitization factor to rifampin: 180-250
E. coli NCTC13351
  MIC of clarithromycin in the presence of 4 μg/ml of NAB 7061: 0.032 µg/mL
  MIC of rifampin in the presence of 4 μg/ml of NAB 7061: 0.032 to 0.047 µg/mL
E. coli NCTC13351; NAB 7061 4 μg/ml
  Sensitization factor to rifampin: 340-500
E. coli CCUG41427
  MIC of clarithromycin in the presence of 4 μg/ml of NAB 7061: 0.064 µg/mL
  MIC of rifampin in the presence of 4 μg/ml of NAB 7061: 0.032 to 0.064 µg/mL
E. coli CCUG41427; NAB 7061 4 μg/ml
  Sensitization factor to rifampin: 100-250
E. coli CCUG41425
  MIC of clarithromycin in the presence of 4 μg/ml of NAB 7061: 0.047 µg/mL
S. marcescens ATCC8100
  MIC of rifampin in the presence of 4 μg/ml of NAB 7061: 16 µg/mL
A. baumannii ATCC 19606; rifampin 0 μg/ml
  Antibacterial activity in the presence of rifampin (growth inhibition area around a well): 0 square millimeters
A. baumannii ATCC 19606; rifampin 0.1 μg/ml
  Antibacterial activity in the presence of rifampin (growth inhibition area around a well): 28 square millimeters
A. baumannii ATCC 19606; rifampin 0.3 μg/ml
  Antibacterial activity in the presence of rifampin (growth inhibition area around a well): 50 square millimeters
E. coli IH3080; rifampin 0 μg/ml
  Antibacterial activity in the presence of rifampin (growth inhibition area around a well): 0 square millimeters
E. coli IH3080; rifampin 0.1 μg/ml
  Antibacterial activity in the presence of rifampin (growth inhibition area around a well): 113 square millimeters
E. coli IH3080; rifampin 1.0 μg/ml
  Antibacterial activity in the presence of rifampin (growth inhibition area around a well): 155 square millimeters
[3]
  Sensitization factor to azithromycin: 31-94
  Sensitization factor to clarithromycin: 63-380

From US9067974B2, “Polymyxin derivatives and uses thereof” (priority 2006, dated 2015)
